pIC50: −log10 of the molar value.
Legend:
human mTOR = molecular target: T1, human mTOR (Homo sapiens, UniProt P42345); assay: mTOR Kinase Activity Inhibition Test; format: biochemical; conditions: His-tagged mTOR (1362C), biotinylated peptide substrate, ATP, 3 hours at room temperature, fluorescence resonance energy transfer 665 nm/620 nm; read-out: IC50 value of mTOR enzyme inhibitory activity
T1 construct: the portion corresponding to 1362-2549aa at the C terminus of human mTOR; made in house
Outline: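 Purified His-tagged human mTOR (1362–2549aa, from HEK293) was used with biotinylated peptide (8 μg/mL in enzyme solution) in HEPES pH 7.5 with 20 mM MnCl2. Compounds were diluted in 20 μM ATP solution, and the reaction ran 3 h at RT. Phospho-S6K(Thr389) HTRF was read as the 665/620 nm ratio, and IC50 came from % inhibition versus controls.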

WM-266-4 cells = assay: Cell Proliferation Inhibitory Test; format: cell-based; conditions: Homo sapiens, 72 h, cultured three days with test compound, MTT, read-out: 50% cell proliferation inhibitory activity (GI50 value)
Outline: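 Cells cultured overnight, then exposed to serially diluted compound for three days; cell amount read by MTT. GI50 solved from 100×[(T−T0)/(C−T0)]=50, with T0 the value at time of compound addition and C the untreated three-day control.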

T1 sequence (P42345 1362-2549): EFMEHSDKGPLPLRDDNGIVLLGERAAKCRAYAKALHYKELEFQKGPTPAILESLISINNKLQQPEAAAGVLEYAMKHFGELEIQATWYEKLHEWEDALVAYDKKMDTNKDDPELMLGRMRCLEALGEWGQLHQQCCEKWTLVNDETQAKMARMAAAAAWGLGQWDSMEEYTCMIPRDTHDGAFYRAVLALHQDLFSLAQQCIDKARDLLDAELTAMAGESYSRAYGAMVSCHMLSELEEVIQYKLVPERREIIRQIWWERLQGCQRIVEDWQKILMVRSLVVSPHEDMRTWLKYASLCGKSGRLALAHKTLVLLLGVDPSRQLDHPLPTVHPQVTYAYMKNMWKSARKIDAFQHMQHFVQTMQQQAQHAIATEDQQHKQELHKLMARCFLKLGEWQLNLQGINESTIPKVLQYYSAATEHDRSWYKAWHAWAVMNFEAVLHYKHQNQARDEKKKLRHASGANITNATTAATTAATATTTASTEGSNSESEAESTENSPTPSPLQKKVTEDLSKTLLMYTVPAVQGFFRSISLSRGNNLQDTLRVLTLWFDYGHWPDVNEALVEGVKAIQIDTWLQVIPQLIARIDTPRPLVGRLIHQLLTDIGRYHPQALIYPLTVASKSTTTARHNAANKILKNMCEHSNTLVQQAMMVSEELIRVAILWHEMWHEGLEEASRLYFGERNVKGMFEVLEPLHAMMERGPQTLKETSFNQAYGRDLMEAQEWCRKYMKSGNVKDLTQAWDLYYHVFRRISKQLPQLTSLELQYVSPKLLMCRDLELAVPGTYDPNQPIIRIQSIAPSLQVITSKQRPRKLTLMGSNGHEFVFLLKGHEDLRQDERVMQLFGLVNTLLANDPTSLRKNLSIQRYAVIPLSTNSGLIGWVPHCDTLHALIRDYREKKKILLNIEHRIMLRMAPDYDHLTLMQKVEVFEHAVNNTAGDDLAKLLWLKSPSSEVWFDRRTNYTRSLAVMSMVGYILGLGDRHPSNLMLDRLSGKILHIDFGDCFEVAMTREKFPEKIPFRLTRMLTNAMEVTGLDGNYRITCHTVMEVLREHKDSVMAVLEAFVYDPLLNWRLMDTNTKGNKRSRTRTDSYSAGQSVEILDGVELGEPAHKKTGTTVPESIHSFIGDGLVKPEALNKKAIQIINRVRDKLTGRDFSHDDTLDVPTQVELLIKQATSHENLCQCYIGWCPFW

Structure (SMILES) | pIC50 (human mTOR) | GI50 (WM-266-4 cells)
Cc1c[nH]c2ncc(-c3cnc4[nH]c(=O)n(C[C@H]5C[C@@H](O)CCO5)c4c3)c(C)c12 [Example 150, 2,6-Anhydro-1,3,5-trideoxy-1-[6-(3,4-dimethyl-1H-pyrrolo[2,3-b]pyridin-5-yl)-2-oxo-2,3-dihydro-1H-imidazo[4,5-b]pyridin-1-yl]-L-threo-hexitol] | > 7.30 | < 3000 nM
CO[C@H]1CCO[C@@H](Cn2c(=O)[nH]c3ncc(-c4cnc5[nH]cc(C)c5c4C)cc32)C1 [Example 151, 2,6-Anhydro-1,3,5-trideoxy-1-[6-(3,4-dimethyl-1H-pyrrolo[2,3-b]pyridin-5-yl)-2-oxo-2,3-dihydro-1H-imidazo[4,5-b]pyridin-1-yl]-4-O-methyl-L-threo-hexitol] | > 7.30 | < 3000 nM
CO[C@H]1CCO[C@@H](Cn2c(=O)[nH]c3ncc(-c4cnc5[nH]cc(Cl)c5c4C)cc32)C1 [Example 152, 2,6-Anhydro-1-[6-(3-chloro-4-methyl-1H-pyrrolo[2,3-b]pyridin-5-yl)-2-oxo-2,3-dihydro-1H-imidazo[4,5-b]pyridin-1-yl]-1,3,5-trideoxy-4-O-methyl-L-threo-hexitol] | > 7.30 | < 3000 nM
COCC1COC[C@H](Cn2c(=O)[nH]c3ncc(-c4cnc5[nH]ccc5c4C)cc32)O1 (stereo partly drawn) [Example 153, 1-{[(2S)-6-(Methoxymethyl)-1,4-dioxan-2-yl]methyl}-6-(4-methyl-1H-pyrrolo[2,3-b]pyridin-5-yl)-1,3-dihydro-2H-imidazo[4,5-b]pyridin-2-one] | > 7.30 | < 3000 nM
O=c1[nH]c2nc(Cl)c(-c3cnc4[nH]ccc4c3)cc2n1C[C@H]1COCCO1 [Example 155, 5-Chloro-1-[(2S)-1,4-dioxan-2-ylmethyl]-6-(1H-pyrrolo[2,3-b]pyridin-5-yl)-1,3-dihydro-2H-imidazo[4,5-b]pyridin-2-one] | > 7.30 | < 3000 nM
